The test deals with LovK (Caulobacter vibrioides, UniProt A0A0H3C379). In words: competition with BODIPY-ATP, fluorescence anisotropy. The settings on record: 1 mM ATP in excess; competitive, same site as BODIPY-ATP. It is filed as binding.

For the compound `Nc1ncnc2c1ncn2[C@@H]1O[C@H](COP(=O)(O)OP(=O)(O)OP(=O)(O)O)[C@@H](O)[C@H]1O` [ATP], the “competition with BODIPY-ATP, fluorescence anisotropy” value is listed as “BODYPI-ATP is displaced from LovK due to competition for the same binding site”.

The record behind these values is paper PMC2882989 (Biochemistry, 2010).
